Data as given in US20070048247A1, “Deodorizing tablets” (Kimberly-Clark Worldwide, Inc., priority 2005, published 2007).

What was measured:
[1] = Redox potential (redox potentiometry); assay type: physicochemical
Description: The ability of quinone compounds to accept electrons from another substance (i.e., be reduced) may be quantified using a technique known as redox potentiometry. Redox potentiometry is a technique that measures (in volts) the affinity of a substance for electrons—its electronegativity—compared with hydrogen (which is set at 0). Substances more strongly electronegative than (i.e., capable of oxidizing) hydrogen have positive redox potentials. Substances less electronegative than (i.e., capable of reducing) hydrogen have negative redox potentials. The greater the difference between the redox potentials of two substances (ΔE), the greater the vigor with which electrons will flow spontaneously from the less positive to the more positive (more electronegative) substance. As is well known in the art, redox potential may be measured using any of a variety of commercially available meters, such as an Oxidation Reduction Potential (ORP) tester commercially available from Hanna Instruments, Inc. of Woonsocket, R. I. The redox potential of the quinone compounds may, for instance, be less than about −50 millivolts (mV), in some embodiments less than about −150 mV, in some embodiments less than about −300 mV, and in some embodiments, less than about −500 mV. Although not always the case, the redox potential may vary based on the number and location of functional groups, such as sulfonic acid, on the quinone structure. For example, 2-sulfonic acid anthraquinone has a redox potential of −380 mV; 2,6-disulfonic acid anthraquinone has a redox potential of −325 mV; and 2,7-disulfonic acid anthraquinone has a redox potential of −313 mV. Likewise, 2-sulfonic acid naphthaquinone has a redox potential of −60 mV. The use of other functional groups may also have an affect on the ultimate redox potential of the compound. For example, Acid Blue 25, which also contains amino- and aramid functional groups, has a redox potential of −605 mV.

[2] = Example 3 urine odor panel ranking; set-up: species or system Human; conditions: for Average Urine Odor Ranking (with statistical corrections), Avg. Score: ignoring statistical anomalies
Experimental: (§1) The effectiveness of various quinone compounds in reducing urine odor was compared. […] Human female urine was initially collected and pooled by a nurse on staff at Kimberly-Clark Corporation. The pooled urine was added to mason jars in 50-milliliter aliquots using an automated pipette aid. […] The mason jars were placed in an incubator overnight at 37° C.
(§2) In addition to ranking the jars from least to most malodorous (on a scale from 1 to 7, with 7 being the most malodors), panelists were also asked to judge whether there were secondary (non-urine) odors present and, if so, the extent that the secondary odors were unpleasant (on a scale from 1 to 5, with 5 being extremely unpleasant).
In this assessment, panelists were given instructions to rank the least malodorous jar as “1” and the most malodorous jar as “10,” remaining free to rank the other jars between 2-9.

[3] = Example 7 urine odor panel ranking (16 millimolar); set-up: species or system Human; conditions: 16 millimolar in urine, 1 least, 10 most urine malodor
Experimental: The effectiveness of various quinone compounds in reducing urine odor was compared. […] Human female urine was initially collected and pooled at Kimberly-Clark Corporation. The pooled urine was added to mason jars in 50-milliliter aliquots using an automated pipette aid. Powders of the aforementioned quinone compounds (commercially available from Sigma-Aldrich Chemical Co., Inc. of St. Louis, Missouri and Noveon Hilton Davis, Inc. of Cincinnati, Ohio) were weighed and placed into the mason jars containing 50 milliliters of urine so that the final concentration of the powder was 16 millimolar (equivalent to 1 wt. %). The mason jars were placed in an incubator overnight at 37° C. The experimental setup is set forth in more detail below in Table 21.
Jars were wrapped in foil and placed in an incubator at 37° C. overnight. The jars were divided into four groups (C-F), each sharing the same control jar of urine alone (no powder). Assessments were conducted the following day by asking panelists to rate each jar from 1 (least urine malodor) to 10 (most urine malodor).

[4] = Example 3 secondary (non-urine) odor ranking; set-up: species or system Human; conditions: individual panelist scores, scale 1 to 5, 5 extremely unpleasant
Experimental: as §1, §2

[5] = Solubility of powder in urine
[6] = Example 2 urine odor panel ranking (1.6 millimolar); set-up: species or system Human; conditions: 1.6 millimolar in urine, after 24 hours
Description: The powders chosen for this example were powders of Acid Blue 25, Acid Blue 45, Acid Blue 129, FD&C Blue No.1 (a triarylmethane), Acid Green 27, Acid Green 41, and Mordant Violet 5 (Alizarin Violet 3R) (commercially available from Sigma-Aldrich Chemical Co., Inc. of St. Louis, Mo.), as well as D&C Green No. 5 (commercially available from Noveon Hilton Davis, Inc. of Cincinnati, Ohio). Human female urine was initially collected and pooled by a nurse on staff at Kimberly-Clark Corporation. […] Powders of the aforementioned quinone compounds were weighed and placed into the mason jars containing 50 milliliters of urine so that the final concentration of the powder was 1.6 millimolar (equivalent to 0.1 wt. %). […] A score of “10” was assigned to the most malodorous jar and a score of “1” was assigned to the least malodorous jar.

[7] = Example 1 urine odor panel ranking; set-up: species or system Human; conditions: 8 millimolar in urine; for Avg. Ranking (odor) / Ranking 4 (number of panelists) / Ranking 5 (number of panelists) / Ranking 1 (number of panelists) / Ranking 3 (number of panelists) / Ranking 7 (number of panelists): 1 least, 10 most malodorous
Description: Human female urine was initially collected and pooled by a nurse on staff at Kimberly-Clark Corporation. […] Powders of Acid Blue 129 and Acid Green 27 (commercially available from Sigma-Aldrich Chemical Co., Inc. of St. Louis, Mo.), as well as D&C Green No. 5 (commercially available from Noveon Hilton Davis, Inc. of Cincinnati, Ohio), were then weighed and placed into the mason jars containing 50 milliliters of urine so that the final concentration of the powder was 8 millimolar (equivalent to 0.5 wt. %). […] A score of “10” was assigned to the most malodorous jar and a score of “1” was assigned to the least malodorous jar.

[8] = Example 5 urine odor panel ranking; set-up: species or system Human
Experimental: Assessments were conducted the following day by asking panelists to rate each jar from 1 (least urine malodor) to 8 (most urine malodor). The results are set forth below in Tables 15-18.

[9] = Example 6 urine odor panel ranking; set-up: species or system Human; conditions: as Example 5, 1 least, 8 most urine malodor
Description: The quinone compounds chosen for this example were Alizarin Blue Black B, Remazol Brilliant Blue R and Acid Green 25. The results are set forth below in Tables 19 and 20.

[10] = Example 3 first grouping, 8 millimolar in urine, scale 1 to 7, 7 most malodorous
[11] = Example 3 top performers of both groupings, after 24 hours, 1 least, 10 most malodorous
[12] = Example 3 top performers, after 24 hours, 1 least, 10 most malodorous
[13] = Example 3 top performers, after 24 hours
[14] = Example 7, 16 mM in 50 milliliters of urine
[15] = Example 5 Group A, 8 mM in urine, 1 least, 8 most urine malodor
[16] = Example 3 second grouping, 8 millimolar in urine, 1 least malodorous
[17] = Example 5, 8 mM in 50 milliliters of urine
[18] = Example 5 Group B, 8 mM in urine, 1 least, 8 most urine malodor

Nc1c(S(=O)(=O)[O-])cc(Nc2ccccc2)c2c1C(=O)c1ccccc1C2=O.[Na+] [Acid Blue 25]
redox potential [1]: −605 mV | urine odor reduction (in words) ([2]; Example 3 first grouping): functioned effectively to reduce odor | Average Urine Odor Ranking, Avg. Score [2, 10]: 3.0 | Urine Odor Ranking 1 (number of panelists) [2, 10]: 1 | Urine Odor Ranking 2 (number of panelists) [2, 10]: 1 | Urine Odor Ranking 3 (number of panelists) [2, 10]: 1 | Urine Odor Ranking 4 (number of panelists) [2, 10]: 1 | Urine Odor Ranking 5 (number of panelists) [2, 10]: 1 | Urine Odor Ranking 4 (number of panelists) [2, 11]: 1 | Urine Odor Ranking 7 (number of panelists) [2, 11]: 1 | Urine Odor Ranking 9 (number of panelists) [2, 11]: 2 | Urine Odor Ranking 10 (number of panelists) [2, 11]: 1 | Average Urine Odor Ranking, Avg. Score [2, 12]: 6.8 | Average Urine Odor Ranking (with statistical corrections), Avg. Score [2, 13]: 8.8 | Average Rankings (Group C), Avg. Score ([3]; Example 7 Group C): 2.4 | Urine Odor Ranking 1 (number of panelists) ([3]; Example 7 Group C): 3 | Urine Odor Ranking 4 (number of panelists) ([3]; Example 7 Group C): 1 | Urine Odor Ranking 5 (number of panelists) ([3]; Example 7 Group C): 1 | Secondary Odor Ranking ([4]; Example 3 first grouping): 2 | Secondary Odor Ranking [4, 13]: 4 | Soluble? [5, 14]: Mostly

O=C1c2ccc(S(=O)(=O)O)cc2C(=O)c2ccc(S(=O)(=O)O)cc21 [2,6-disulfonic acid anthraquinone]
redox potential [1]: −325 mV

Cc1ccc(Nc2cccc3c2C(=O)c2cccc(Nc4ccc(C)cc4S(=O)(=O)[O-])c2C3=O)c(S(=O)(=O)[O-])c1.[Na+].[Na+]
reducing odor (in words) [6]: did not perform as well in reducing odor as D&C Green No. 5 | Average Urine Odor Ranking, Avg. Score [2, 10]: 5.8 | Urine Odor Ranking 4 (number of panelists) [2, 10]: 1 | Urine Odor Ranking 6 (number of panelists) [2, 10]: 3 | Urine Odor Ranking 7 (number of panelists) [2, 10]: 1 | Secondary Odor Ranking ([4]; Example 3 first grouping): 1

CCCCc1ccc(Nc2ccc(Nc3ccc(CCCC)cc3S(=O)(=O)[O-])c3c2C(=O)c2ccccc2C3=O)c(S(=O)(=O)[O-])c1.[Na+].[Na+] [Acid Green 27]
reducing urine malodor (in words) [7]: functioned effectively in reducing urine malodor | Avg. Ranking (odor) ([7]; after 6 hours): 4.4 | Ranking 4 (number of panelists) ([7]; after 6 hours): 3 | Ranking 5 (number of panelists) ([7]; after 6 hours): 2 | Avg. Ranking (odor) ([7]; after 24 hours): 4.5 | Ranking 1 (number of panelists) ([7]; after 24 hours): 1 | Ranking 3 (number of panelists) ([7]; after 24 hours): 2 | Ranking 7 (number of panelists) ([7]; after 24 hours): 3 | Average Rankings (Group A), Avg. Score [8, 15]: 4.25 | Urine Odor Ranking 3 (number of panelists) [8, 15]: 1 | Urine Odor Ranking 4 (number of panelists) [8, 15]: 2 | Urine Odor Ranking 6 (number of panelists) [8, 15]: 1 | Average Urine Odor Ranking, Avg. Score [2, 16]: 3.6 | Urine Odor Ranking 2 (number of panelists) [2, 16]: 2 | Urine Odor Ranking 4 (number of panelists) [2, 16]: 1 | Urine Odor Ranking 5 (number of panelists) [2, 16]: 2 | Urine Odor Ranking 2 (number of panelists) [2, 11]: 1 | Urine Odor Ranking 8 (number of panelists) [2, 11]: 2 | Urine Odor Ranking 9 (number of panelists) [2, 11]: 1 | Urine Odor Ranking 10 (number of panelists) [2, 11]: 1 | Average Urine Odor Ranking, Avg. Score [2, 12]: 6.4 | Average Urine Odor Ranking (with statistical corrections), Avg. Score [2, 13]: 8.8 | Average Rankings (Group E), Avg. Score ([3]; Example 7 Group E): 6.2 | Urine Odor Ranking 1 (number of panelists) ([3]; Example 7 Group E): 1 | Urine Odor Ranking 5 (number of panelists) ([3]; Example 7 Group E): 1 | Urine Odor Ranking 7 (number of panelists) ([3]; Example 7 Group E): 1 | Urine Odor Ranking 8 (number of panelists) ([3]; Example 7 Group E): 1 | Urine Odor Ranking 10 (number of panelists) ([3]; Example 7 Group E): 1 | Secondary Odor Ranking ([4]; Example 3 second grouping): 2 | Secondary Odor Ranking [4, 13]: 4 | Soluble? [5, 17]: Mostly | Soluble? [5, 14]: Mostly

Cc1ccc(Nc2ccc(Nc3ccc(C)cc3S(=O)(=O)[O-])c3c2C(=O)c2ccccc2C3=O)c(S(=O)(=O)[O-])c1.[Na+].[Na+] [D&C Green No. 5]
Average Rankings, Avg. Score [9]: 6.25 | Urine Odor Ranking 5 (number of panelists) [9]: 2 | Urine Odor Ranking 7 (number of panelists) [9]: 1 | Urine Odor Ranking 8 (number of panelists) [9]: 1 | reducing urine malodor (in words) [7]: functioned effectively in reducing urine malodor | Avg. Ranking (odor) ([7]; after 6 hours): 3.0 | Ranking 1 (number of panelists) ([7]; after 6 hours): 1 | Ranking 3 (number of panelists) ([7]; after 6 hours): 3 | Ranking 5 (number of panelists) ([7]; after 6 hours): 1 | Avg. Ranking (odor) ([7]; after 24 hours): 5.2 | Ranking 4 (number of panelists) ([7]; after 24 hours): 3 | Ranking 5 (number of panelists) ([7]; after 24 hours): 1 | Ranking 7 (number of panelists) ([7]; after 24 hours): 2 | odor reduction performance (in words) ([8]; Example 5 Group B): performed well | Average Rankings (Group B), Avg. Score [8, 18]: 4.25 | Urine Odor Ranking 2 (number of panelists) [8, 18]: 1 | Urine Odor Ranking 3 (number of panelists) [8, 18]: 1 | Urine Odor Ranking 5 (number of panelists) [8, 18]: 1 | Urine Odor Ranking 7 (number of panelists) [8, 18]: 1 | urine odor reduction (in words) ([2]; Example 3 second grouping): did not perform as well compared to the other quinone compounds | Urine Odor Ranking 4 (number of panelists) [2, 16]: 3 | Urine Odor Ranking 5 (number of panelists) [2, 16]: 2 | Urine Odor Ranking 2 (number of panelists) [2, 11]: 1 | Urine Odor Ranking 4 (number of panelists) [2, 11]: 1 | Urine Odor Ranking 7 (number of panelists) [2, 11]: 2 | Urine Odor Ranking 10 (number of panelists) [2, 11]: 1 | Average Urine Odor Ranking, Avg. Score [2, 12]: 6.0 | Average Urine Odor Ranking (with statistical corrections), Avg. Score [2, 13]: 7.0 | Average Rankings (Group D), Avg. Score ([3]; Example 7 Group D): 7 | Urine Odor Ranking 5 (number of panelists) ([3]; Example 7 Group D): 2 | Urine Odor Ranking 7 (number of panelists) ([3]; Example 7 Group D): 1 | Urine Odor Ranking 9 (number of panelists) ([3]; Example 7 Group D): 2 | Secondary Odor Ranking ([4]; Example 3 second grouping): 4 | Secondary Odor Ranking [4, 13]: 4 | Soluble? [5, 17]: Yes | Soluble? [5, 14]: Yes

O=C1c2ccc(S(=O)(=O)O)cc2C(=O)c2cc(S(=O)(=O)O)ccc21 [2,7-disulfonic acid anthraquinone]
redox potential [1]: −313 mV

O=C1c2ccccc2C(=O)c2cc(S(=O)(=O)O)ccc21 [2-sulfonic acid anthraquinone]
redox potential [1]: −380 mV

O=C1C=C(S(=O)(=O)O)C(=O)c2ccccc21 [2-sulfonic acid naphthaquinone]
redox potential [1]: −60 mV
